Patent publication US20260226048A1, “MULTI-CYCLIC IRAK AND FLT3 INHIBITING COMPOUNDS AND USES THEREOF” (CHILDREN'S HOSPITAL MEDICAL CENTER, priority 2023, published 2026)

Key:
[1] = molecular target: T1, FLT3 ITD (Homo sapiens, UniProt P36888); assay: DiscoverX KINOMEscan competition binding assay, FLT3 ITD; details: 11-point 3-fold dilution
T1 construct: fused on or other part: DNA tag for qPCR detection (kinase-tagged T7 phage, or made in HEK-293 cells and then tagged with DNA)
T1 sequence (P36888 1-993): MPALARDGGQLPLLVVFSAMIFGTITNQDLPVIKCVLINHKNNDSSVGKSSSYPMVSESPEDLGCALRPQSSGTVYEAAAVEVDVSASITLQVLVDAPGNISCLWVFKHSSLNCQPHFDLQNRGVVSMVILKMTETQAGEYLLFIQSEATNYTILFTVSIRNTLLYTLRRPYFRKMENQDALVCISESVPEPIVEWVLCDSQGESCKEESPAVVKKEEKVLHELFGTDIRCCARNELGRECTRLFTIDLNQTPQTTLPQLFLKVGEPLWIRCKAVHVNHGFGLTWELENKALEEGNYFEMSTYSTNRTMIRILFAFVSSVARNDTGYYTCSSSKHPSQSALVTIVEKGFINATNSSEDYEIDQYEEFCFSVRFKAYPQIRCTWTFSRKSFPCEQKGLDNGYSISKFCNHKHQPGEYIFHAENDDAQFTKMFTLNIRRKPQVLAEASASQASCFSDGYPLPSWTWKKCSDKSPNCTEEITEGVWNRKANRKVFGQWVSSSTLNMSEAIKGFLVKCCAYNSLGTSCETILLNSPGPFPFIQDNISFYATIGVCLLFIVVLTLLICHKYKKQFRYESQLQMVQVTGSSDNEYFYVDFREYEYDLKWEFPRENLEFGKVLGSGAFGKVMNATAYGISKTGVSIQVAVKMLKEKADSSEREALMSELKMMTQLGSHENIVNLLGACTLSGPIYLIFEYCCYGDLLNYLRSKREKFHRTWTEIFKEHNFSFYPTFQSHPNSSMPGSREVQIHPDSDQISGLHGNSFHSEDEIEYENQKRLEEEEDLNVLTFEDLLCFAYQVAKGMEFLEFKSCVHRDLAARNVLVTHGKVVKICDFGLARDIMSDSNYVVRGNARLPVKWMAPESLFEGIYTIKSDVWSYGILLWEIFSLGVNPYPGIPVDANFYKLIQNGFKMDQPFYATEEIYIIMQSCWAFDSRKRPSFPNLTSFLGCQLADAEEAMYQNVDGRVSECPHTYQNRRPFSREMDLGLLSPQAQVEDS
Text: (§1) […]. […] As a result, the data report thermodynamic interaction affinities (Kd values), rather than IC50 values that are dependent on ATP concentrations. The assay uses a DNA-tagged version of the protein kinase, and an immobilized ligand bound to a solid support. Compounds that directly or indirectly prevent kinase binding to the immobilized ligand reduce the amount of kinase captured on the solid support, which is detected using an ultra-sensitive qPCR method. Affinity constants reported from the assay have been reported to be independent of the immobilized ligand used that is coupled to the solid support (See supplemental information in Fabian, M. A. et. al., (2005) Nat. Biotechnol. 23, 329-336; Wodicka, L. M. et. al., (2010) Chem. Biol. 17, 1241-1249.)
(§2) Kinase-tagged T7 phage strains were prepared in an E. coli host derived from the BL21 strain. E. coli were grown to log-phase and infected with T7 phage and incubated with shaking at 32° C. until lysis. The lysates were centrifuged and filtered to remove cell debris. The remaining kinases were produced in HEK-293 cells and subsequently tagged with DNA for qPCR detection. Streptavidin-coated magnetic beads were treated with biotinylated small molecule ligands for 30 minutes at room temperature to generate affinity resins for kinase assays. The liganded beads were blocked with excess biotin and washed with blocking buffer (SeaBlock (Pierce), 1% BSA, 0.05% Tween 20, 1 mM DTT) to remove unbound ligand and to reduce non-specific binding. […] Test compounds were prepared as 111× stocks in 100% DMSO. Kds were determined using an 11-point 3-fold compound dilution series with three DMSO control points. All compounds for Kd measurements are distributed by acoustic transfer (non-contact dispensing) in 100% DMSO. The compounds were then diluted directly into the assays such that the final concentration of DMSO was 0.9%. All reactions were performed in polypropylene 384-well plates. Each was a final volume of 0.02 mL. […] The kinase concentration in the eluates was measured by qPCR.
(§3) Binding constants (Kds) were calculated with a standard dose-response curve using the Hill equation. The Hill Slope was set to −1. Curves were fitted using a non-linear least square fit with the Levenberg-Marquardt algorithm.

[2] = molecular target: T2, FLT3 N841I (Homo sapiens, UniProt P36888, N841I); assay: DiscoverX KINOMEscan competition binding assay, FLT3 N841I; details: 11-point 3-fold dilution
T2 construct: purchased DiscoverX (KINOMEscan); host or cells: E. coli BL21-derived host (T7 phage) or HEK-293
T2 sequence (P36888 27-993 N841I): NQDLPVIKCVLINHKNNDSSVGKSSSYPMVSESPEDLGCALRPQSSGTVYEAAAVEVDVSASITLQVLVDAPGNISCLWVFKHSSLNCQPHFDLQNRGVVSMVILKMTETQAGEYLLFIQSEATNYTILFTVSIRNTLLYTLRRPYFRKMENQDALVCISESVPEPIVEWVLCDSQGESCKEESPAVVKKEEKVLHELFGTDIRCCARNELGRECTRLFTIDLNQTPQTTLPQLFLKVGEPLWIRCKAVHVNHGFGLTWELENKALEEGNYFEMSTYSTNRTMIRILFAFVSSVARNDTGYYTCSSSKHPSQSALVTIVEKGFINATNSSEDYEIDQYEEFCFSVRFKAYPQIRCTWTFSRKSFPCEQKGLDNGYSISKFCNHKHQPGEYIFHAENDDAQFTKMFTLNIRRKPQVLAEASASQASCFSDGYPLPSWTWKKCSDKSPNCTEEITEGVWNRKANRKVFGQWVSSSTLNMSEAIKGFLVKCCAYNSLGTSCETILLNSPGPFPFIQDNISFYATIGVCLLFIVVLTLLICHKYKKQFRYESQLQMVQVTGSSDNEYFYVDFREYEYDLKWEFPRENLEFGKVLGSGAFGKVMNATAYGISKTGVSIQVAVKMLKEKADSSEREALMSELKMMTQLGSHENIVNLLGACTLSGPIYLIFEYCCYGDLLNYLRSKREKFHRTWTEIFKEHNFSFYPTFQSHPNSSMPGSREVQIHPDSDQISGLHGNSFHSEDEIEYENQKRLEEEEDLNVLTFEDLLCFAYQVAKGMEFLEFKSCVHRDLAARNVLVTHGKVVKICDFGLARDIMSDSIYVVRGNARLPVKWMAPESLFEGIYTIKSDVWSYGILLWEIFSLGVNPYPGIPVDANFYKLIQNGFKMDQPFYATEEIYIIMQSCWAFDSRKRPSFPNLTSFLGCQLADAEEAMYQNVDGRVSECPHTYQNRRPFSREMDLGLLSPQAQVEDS
Text: as §1, §2, §3

Structure (SMILES) | Kd [1] | Kd [2]
COc1cc2ncc(-c3nc(N[C@H]4CNCC[C@@H]4F)ncc3F)n2nc1C1COC1 [Compound 92a, 5-fluoro-N-((3S,4S)-4-fluoropiperidin-3-yl)-4-(7-methoxy-6-(oxetan-3-yl)imidazo[1,2-b]pyridazin-3-yl)pyrimidin-2-amine] | 0.21 nM | 0.18 nM
CC(C)(O)c1cn2c(-c3nc(N[C@H]4CNCC[C@@H]4F)ncc3F)cnc2cn1 [Compound 100a, 2-(3-(5-fluoro-2-(((3S,4S)-4-fluoropiperidin-3-yl)amino)pyrimidin-4-yl)imidazo[1,2-a]pyrazin-6-yl)propan-2-ol] | 2.7 nM | 16 nM
CC(C)(O)c1ccc2ncc(-c3nc(N[C@H]4CNCC[C@@H]4F)ncc3F)n2c1 [Compound 46a, 2-(3-(5-fluoro-2-(((3S,4S)-4-fluoropiperidin-3-yl)amino)pyrimidin-4-yl)imidazo[1,2-a]pyridin-6-yl)propan-2-ol] | 0.19 nM | 3.2 nM
COc1cc2ncc(-c3nc(N[C@H]4CNCC[C@@H]4F)ncc3F)n2nc1C1CC1 [Compound 1a, 4-(6-cyclopropyl-7-methoxyimidazo[1,2-b]pyridazin-3-yl)-5-fluoro-N-((3S,4S)-4-fluoropiperidin-3-yl)pyrimidin-2-amine] | 0.21 nM | < 0.17 nM
FC(F)COc1cc2ncc(-c3ccnc(N[C@H]4CNCC[C@@H]4F)n3)n2nc1C1CC1 [Compound 4a, 4-(6-cyclopropyl-7-(2,2-difluoroethoxy)imidazo[1,2-b]pyridazin-3-yl)-N-((3 S,4S)-4-fluoropiperidin-3-yl)pyrimidin-2-amine] | 1.7 nM | 0.88 nM
COc1cc2ncc(-c3nc(N[C@H]4CNCC[C@@H]4F)ncc3F)n2nc1C(C)(C)O [Compound 45a, 2-(3-(5-fluoro-2-(((3S,4S)-4-fluoropiperidin-3-yl)amino)pyrimidin-4-yl)-7-methoxyimidazo[1,2-b]pyridazin-6-yl)propan-2-ol] | < 0.17 nM | 1.1 nM
COc1cc2ncc(-c3nc(N[C@H]4CNCC[C@@H]4F)ncc3F)n2nc1N1CCCS1(=O)=O [Compound 112a, 2-(3-(5-fluoro-2-(((3S,4S)-4-fluoropiperidin-3-yl)amino)pyrimidin-4-yl)-7-methoxyimidazo[1,2-b]pyridazin-6-yl)isothiazolidine 1,1-dioxide] | 0.2 nM | 0.2 nM
